# Data published in patent US8476287B2, “3-hydroxy-5-arylisothiazole derivative” (Mochida Pharmaceutical Co., Ltd., priority 2009, dated 2013).
# pEC50: −log10 of the molar value. Structures can show the parent of a compound that is named as a salt.
# Biological target: T1, GPR40 of human origin (Homo sapiens, UniProt O14842)
# T1 construct: expressed in transfected cells
# Experiment: Agonist action on GPR40 of human origin (Ca2+ fluorescence in CHO cells)
# Type: cell-based
# Settings: CHO cell strain stably expressing GPR40 of human origin; Ca2+ concentration fluctuation, fluorescent calcium indicator
# Method: A CHO cell strain stably expressing GPR40 of human origin was used to determine the agonist action of a subject compound. This cell strain was seeded in a clear bottom 96 well plate at 4×10^4 cells/100 μL/well. The cell strain was cultured in a CO2 incubator overnight using a Ham's F-12 medium containing a 10% fetal bovine serum, 100 U/mL penicillin, 0.1 mg/mL streptomycin, and 400 μg/mL Geneticin. Calcium 4 Assay Kit (Molecular Devices) was used as a fluorescent calcium indicator. One mL of 77 mg/mL probenecid (Invitrogen) was added to 100 mL of a calcium indicator solution to prepare a solution (loading solution) mixed with a 20 mM HEPES-containing Hanks' balanced salt solution (HBSS) in equal proportions. 200 μL of the loading solution was added to the cells from which the culture solution was removed, and the cells were cultured in a CO2 incubator for 1 hour. The subject compound was diluted with a 20 mM HEPES-containing HBSS and was added to the cells by 50 μL, and the fluctuation of the Ca^2+ concentration was measured by an intracellular ion analyzer. The EC50 value of the subject compound was calculated using the dose-response curve of fluorescence intensity variation.
# T1 sequence (O14842 whole entry): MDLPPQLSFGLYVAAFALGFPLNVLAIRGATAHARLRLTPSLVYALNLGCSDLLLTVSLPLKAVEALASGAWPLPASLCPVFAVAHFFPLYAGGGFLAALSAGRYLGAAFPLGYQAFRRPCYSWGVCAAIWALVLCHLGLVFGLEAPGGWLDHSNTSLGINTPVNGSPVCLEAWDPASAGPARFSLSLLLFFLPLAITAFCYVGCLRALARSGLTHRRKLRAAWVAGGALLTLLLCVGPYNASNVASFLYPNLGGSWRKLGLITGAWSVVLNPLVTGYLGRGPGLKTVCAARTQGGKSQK
row,SMILES,pEC50
1,"[O-][s+]1nc(O)cc1-c1ccc(OC2CCc3cc(Cl)ccc32)cc1 (stereo not shown) [Example 6, 5-(4-(5-chloro-2,3-dihydro-1H-inden-1-yloxy)phenyl)isothiazol-3-ol 1-oxide]",5.52 to 6.52
2,"Cc1cc(OC2CCS(=O)(=O)CC2)cc(C)c1-c1cccc(COc2ccc(-c3cc(O)n[s+]3[O-])cc2)c1 (stereo not shown) [Example 28, 5-(4-((3-(2,6-dimethyl-4-((1,1-dioxidetetrahydro-2H-thiopyran-4-yl)oxy)phenyl)phenyl)methoxy)phenyl)isothiazol-3-ol 1-oxide(A)]",> 6.52
3,"Cc1c(Br)cccc1COc1ccc(-c2cc(O)n[s+]2[O-])cc1 (stereo not shown) [Example 91, 5-[4-[(3-bromo-2-methylphenyl)methoxy]phenyl]isothiazol-3-ol 1-oxide(A)]",5.52 to 6.52
4,"Cc1cc(OCCCS(C)(=O)=O)cc(C)c1-c1cccc2c1CC[C@H]2Oc1ccc(-c2cc(O)n[s+]2[O-])cc1 (single isomer, unassigned) [Example 138]",> 6.52
5,"Cc1cc(OC2CCS(=O)(=O)CC2)cc(C)c1-c1cccc(COc2ccc(-c3cc(O)n[s+]3[O-])cc2)c1C (stereo not shown) [Example 29, 5-(4-((3-(2,6-dimethyl-4-((1,1-dioxidetetrahydro-2H-thiopyran-4-yl)oxy)phenyl)-2-methylphenyl)methoxy)phenyl)isothiazol-3-ol 1-oxide(A)]",> 6.52
6,"[O-][s+]1nc(O)cc1-c1ccc(OCCc2cccc(Oc3ccccc3)c2)cc1 (stereo not shown) [Example 106, 5-[4-[2-(3-phenoxyphenyl)ethoxy]phenyl]isothiazol-3-ol 1-oxide]",5.52 to 6.52
7,"[O-][s+]1nc(O)cc1-c1ccc(O[C@@H]2CCc3c(C4=CCOCC4)cccc32)cc1 (stereo partly drawn) [Example 121, 5-[4-[[(1R)-4-(3,6-dihydro-2H-pyran-4-yl)-2,3-dihydro-1H-inden-1-yl]oxy]phenyl]isothiazol-3-ol 1-oxide(A)]",5.52 to 6.52
8,"Cc1nc(OCCO)ccc1-c1cccc(COc2ccc(-c3cc(O)n[s+]3[O-])cc2)c1C (stereo not shown) [Example 52, 5-(4-((3-(2-methyl-6-(2-hydroxyethoxy)pyridin-3-yl)-2-methylphenyl)methoxy)phenyl)isothiazol-3-ol 1-oxide(A)]",5.52 to 6.52
9,"[O-][s+]1nc(O)cc1-c1ccc(OC2CCc3c(Cl)cccc32)cc1 (stereo not shown) [Example 68, 5-(4-(4-chloro-2,3-dihydro-1H-inden-1-yloxy)phenyl)isothiazol-3-ol 1-oxide(A)]",> 6.52
10,"Cc1nc(OCCC(C)(C)O)ccc1-c1cccc2c1CC[C@H]2Oc1ccc(-c2cc(O)n[s+]2[O-])cc1 (single isomer, unassigned) [Example 135]",> 6.52
11,"[O-][s+]1nc(O)cc1-c1ccc(OC2CCOc3cc(C(F)(F)F)ccc32)cc1 (stereo not shown) [Example 83, 5-[4-[[7-(trifluoromethyl)-3,4-dihydro-2H-chromen-4-yl]oxy]phenyl]isothiazol-3-ol 1-oxide(A)]",5.52 to 6.52
12,"Cc1ncccc1Oc1cccc2c1CCC2Oc1ccc(-c2cc(O)n[s+]2[O-])cc1 (stereo not shown) [Example 125, 5-[4-[[4-(2-methylpyridin-3-yl)oxy-2,3-dihydro-1H-inden-1-yl]oxy]phenyl]isothiazol-3-ol 1-oxide(A)]",> 6.52
13,Cc1cc(OCC2(C)COC2)c(F)c(C)c1-c1cccc(COc2ccc(-c3cc(O)n[s+]3[O-])cc2)c1 (stereo not shown) [Example 43],> 6.52
14,"Cc1cccc(C)c1N1CCC[C@H](COc2ccc(-c3cc(O)n[s+]3[O-])cc2)C1 (stereo partly drawn) [Example 96, 5-[4-[[(3S)-1-(2,6-dimethylphenyl)piperidin-3-yl]methoxy]phenyl]isothiazol-3-ol 1-oxide (A)]",> 6.52
15,"Cc1cc(OCCCS(C)(=O)=O)cc(C)c1-c1cccc(COc2ccc(-c3cc(O)n[s+]3[O-])cc2)c1 (stereo not shown) [Example 44, 5-(4-((3-(2,6-dimethyl-4-(3-(methylsulfonyl)propoxy)phenyl)phenyl)methoxy)phenyl)isothiazol-3-ol 1-oxide(A)]",> 6.52
16,"Cc1cc(OCC[C@@H](C)O)cc(C)c1-c1cccc(COc2ccc(-c3cc(O)n[s+]3[O-])cc2)c1 (stereo partly drawn) [Example 63, 5-(4-((3-(2,6-dimethyl-4-((3R)-3-hydroxybutoxy)phenyl)phenyl)methoxy)phenyl)isothiazol-3-ol 1-oxide(A)]",> 6.52
17,"COc1ccc(-c2cccc3c2CC[C@H]3Oc2ccc(-c3cc(O)n[s+]3[O-])cc2)c(C)n1 (stereo partly drawn) [Example 119, 5-[4-[[(1R)-4-(6-methoxy-2-methylpyridin-3-yl)-2,3-dihydro-1H-inden-1-yl]oxy]phenyl]isothiazol-3-ol 1-oxide(A)trifluoroacetate salt]",> 6.52

row,SMILES,pEC50
1,"Cc1cc(OCCC(C)(C)O)cc(C)c1-c1cccc(COc2ccc(-c3cc(O)n[s+]3[O-])cc2)c1C (stereo not shown) [Example 31, 5-(4-((3-(2,6-dimethyl-4-(3-hydroxy-3-methylbutoxy)phenyl)-2-methylphenyl)methoxy)phenyl)isothiazol-3-ol 1-oxide(A)]",> 6.52
2,"[O-][s+]1nc(O)cc1-c1ccc(OCc2cccc(Cl)c2)cc1 (single isomer, unassigned) [Example 89, 5-[4-[(3-chlorophenyl)methoxy]phenyl]isothiazol-3-ol 1-oxide(A)]",> 6.52
3,"CC(=O)NCCCOc1ccc(-c2cccc(COc3ccc(-c4cc(O)n[s+]4[O-])cc3)c2C)c(C)n1 (stereo not shown) [Example 71, N-[3-[5-[3-[[4-(3-hydroxy-1-oxo-isothiazol-5-yl)phenoxy]methyl]-2-methylphenyl]-6-methylpyridin-2-yl]oxypropyl]acetamide(A)]",5.52 to 6.52
4,"[O-][s+]1nc(O)cc1-c1ccc(OCc2cccc(Oc3ccccc3)c2)cc1 (stereo not shown) [Example 2, 5-(4-((3-phenoxyphenyl)methoxy)phenyl)isothiazol-3-ol 1-oxide]",5.52 to 6.52
5,"Cc1cc(OC[C@H](O)CO)c(F)c(C)c1-c1cccc(COc2ccc(-c3cc(O)n[s+]3[O-])cc2)c1 (stereo partly drawn) [Example 59, 5-(4-((3-(4-((2R)-2,3-dihydroxypropoxy)-2,6-dimethyl-3-fluorophenyl)phenyl)methoxy)phenyl)isothiazol-3-ol 1-oxide(A)]",> 6.52
6,"CC1(C)CC=C(c2cccc3c2CC[C@H]3Oc2ccc(-c3cc(O)n[s+]3[O-])cc2)CC1 (single isomer, unassigned) [Example 120]",5.52 to 6.52
7,"Cc1cccc(C)c1-c1cccc(COc2ccc(C3=CC(O)=NS3(=O)=O)cc2)c1 [Example 9, 5-(4-((3-(2,6-dimethylphenyl)phenyl)methoxy)phenyl)isothiazol-3-ol 1,1-dioxide]",5.52 to 6.52
8,"CCOCCOc1cc(C)c(-c2cccc3c2CC[C@H]3Oc2ccc(-c3cc(O)n[s+]3[O-])cc2)c(C)c1 (single isomer, unassigned) [Example 139]",> 6.52
9,"C[C@@H](Oc1ccc(-c2cc(O)n[s+]2[O-])cc1)c1cccc(Br)c1 (stereo partly drawn) [Example 88, 5-[4-[(1R)-1-(3-bromophenyl)ethoxy]phenyl]isothiazol-3-ol 1-oxide(A)]",5.52 to 6.52
10,"CCOCCOc1cc(C)c(-c2cccc(COc3ccc(-c4cc(O)n[s+]4[O-])cc3)c2)c(C)c1 (stereo not shown) [Example 17, 5-(4-((3-(2,6-dimethyl-4-(2-ethoxyethoxy)phenyl)phenyl)methoxy)phenyl)isothiazol-3-ol 1-oxide(A)]",> 6.52
11,"[O-][s+]1nc(O)cc1-c1ccc(OCc2cccc3c2OCC3)cc1 (single isomer, unassigned) [Example 95, 5-[4-(2,3-dihydro-1-benzofuran-7-ylmethoxy)phenyl]isothiazol-3-ol 1-oxide(A)]",5.52 to 6.52
12,"[O-][s+]1nc(O)cc1-c1ccc(O[C@@H]2CCc3c(-c4cccnc4C(F)(F)F)cccc32)cc1 (single isomer, unassigned) [Example 117]",5.52 to 6.52
13,"CCOCCOc1cc(C)c(-c2cccc(COc3ccc(-c4cc(O)n[s+]4[O-])cc3)c2)c(C)c1F (stereo not shown) [Example 22, 5-(4-((3-(2,6-dimethyl-4-(2-ethoxyethoxy)-3-fluorophenyl)phenyl)methoxy)phenyl)isothiazol-3-ol 1-oxide(A)]",> 6.52
14,"Cc1cc(OCCO)cc(C)c1-c1cccc(COc2ccc(-c3cc(O)n[s+]3[O-])cc2)c1C (stereo not shown) [Example 51, 5-(4-((3-(2,6-dimethyl-4-(2-hydroxyethoxy)phenyl)-2-methylphenyl)methoxy)phenyl)isothiazol-3-ol 1-oxide(A)]",> 6.52
15,"[O-][s+]1nc(O)cc1-c1ccc(OC2COc3c2cccc3C(F)(F)F)cc1 (stereo not shown) [Example 80, 1-oxo-5-[4-[[7-(trifluoromethyl)-2,3-dihydro-1-benzofuran-3-yl]oxy]phenyl]-1,2-thiazol-3-ol (A)]",> 6.52
16,"Cc1cc(OC[C@H](O)CO)cc(C)c1-c1cccc(COc2ccc(-c3cc(O)n[s+]3[O-])cc2)c1 (stereo partly drawn) [Example 55, 5-(4-((3-(4-((2R)-2,3-dihydroxypropoxy)-2,6-dimethylphenyl)phenyl)methoxy)phenyl)isothiazol-3-ol 1-oxide(A)]",> 6.52
17,"Cc1cccc(C)c1-c1cccc2c1CC[C@H]2Oc1ccc(-c2cc(O)n[s+]2[O-])cc1 (single isomer, unassigned) [Example 107]",> 6.52
